This passage reports Ki results from BindingDB's records for doi:10.1124/jpet.102.47407 (University of Tennessee, 2003).

“And” between values parts separate entries of the source, which are not always exact repeats. Identical values can stand only once.

This experiment deals with T1, cAMP-specific 3',5'-cyclic phosphodiesterase 4B (Rattus norvegicus, UniProt P14646).
T1 sequence (P14646 whole entry): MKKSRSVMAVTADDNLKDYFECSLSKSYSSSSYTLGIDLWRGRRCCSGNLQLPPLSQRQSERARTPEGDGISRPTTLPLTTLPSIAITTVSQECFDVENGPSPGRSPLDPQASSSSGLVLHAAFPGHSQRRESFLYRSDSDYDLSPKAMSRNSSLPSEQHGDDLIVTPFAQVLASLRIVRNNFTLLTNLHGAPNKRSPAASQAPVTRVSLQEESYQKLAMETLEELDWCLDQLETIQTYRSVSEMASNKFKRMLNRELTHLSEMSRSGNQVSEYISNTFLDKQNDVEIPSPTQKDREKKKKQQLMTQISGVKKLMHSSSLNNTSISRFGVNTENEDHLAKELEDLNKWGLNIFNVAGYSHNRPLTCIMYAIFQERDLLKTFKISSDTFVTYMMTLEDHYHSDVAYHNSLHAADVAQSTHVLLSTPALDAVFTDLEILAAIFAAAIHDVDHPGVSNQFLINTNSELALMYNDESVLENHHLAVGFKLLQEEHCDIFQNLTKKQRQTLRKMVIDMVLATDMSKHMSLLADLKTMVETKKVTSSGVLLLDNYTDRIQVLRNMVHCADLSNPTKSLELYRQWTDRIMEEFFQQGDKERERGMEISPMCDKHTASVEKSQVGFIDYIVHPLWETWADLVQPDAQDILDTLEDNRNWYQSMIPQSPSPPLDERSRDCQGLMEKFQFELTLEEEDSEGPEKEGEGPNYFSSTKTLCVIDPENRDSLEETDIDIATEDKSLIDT

Usually Ki stands for the equilibrium dissociation constant of an inhibitor or competing ligand from its target. Read a low Ki as higher affinity. Regarding `COc1ccc(Cc2nccc3cc(OC)c(OC)cc23)cc1OC`, the Ki is > 10 µM and 8.82 µM.

Take `CC(C)Cn1c(=O)n(C)c(=O)c2[nH]cnc21` [1-methyl-3-(2-methylpropyl)-2,3,6,7-tetrahydro-1H-purine-2,6-dione]: the inhibitory constant (Ki) is 8.4 µM and 3.09 µM. Under `COc1cc2c(cc1OC)-c1c/c(=N\c3c(C)cc(C)cc3C)n(C)c(=O)n1CC2` [CAS_5537] stands > 10 µM and 3.15 µM; under `COc1ccc(C(Cc2ccncc2)c2ccccc2)cc1OC1CCCC1` (configuration not stated) [CDP 840], 0.9 µM and 1.25 µM. Under `O=C(Nc1c(Cl)cncc1Cl)c1ccc(OC(F)F)c(OCC2CC2)c1` [DAXAS] stands 0.003 µM and 0.0024 µM. Then `Cc1[nH]c(=O)c(C#N)cc1-c1ccncc1` [Milrinone], with > 10 µM; and `CCOC(=O)C1=CC2(CC)CCCN3CCc4c(n1c1ccccc41)C32` (configuration not stated) [NSC_443955], with 1 µM.
